EC50 and Emax data for 22 compounds are collected here from patent publication US20240336572A1, “SUBSTITUTED INDAZOLE PROPIONIC ACID DERIVATIVE COMPOUNDS AND USES THEREOF” (Pfizer Inc., priority 2023, published 2024).

One experiment addresses T1, AMPK 111 (Homo sapiens, UniProt Q13131+Q9Y478).
T1 construct: open reading frames encoding the full-length α1, β1 and δ1 subunits of human AMPK; made in house; host or cells: E. coli BL21-CodonPlus (DE3)-RIPL, pET-14b
Nature of the experiment: Biochemical profiling of AMPK activators by AMPK111 (HTRF/TR-FRET assay, SAMS peptide, PP2A dephosphorylation protection). The following applies: for EC50: phosphorylated AMPK 111 (α1β1δ1 as printed), 11 point dilution, duplicate, 4-parameter fit; for Emax: phosphorylated AMPK 111, maximal activation. Here is the method: (§1) The biochemical EC50 (half-maximal concentration required for full activation) of compounds for the activation of AMPK was evaluated by HTRF assay using LANCE Ultra ULight-Acetyl-CoA Carboxylase (SAMS) peptide (commercially available, Perkin Elmer catalog TRF0133-M).
Following a fifteen-minute room temperature incubation, 5 μL of 30 nM protein phosphatase PP2A (isolation detailed above) diluted in the assay buffer was added to the plate, to dephosphorylate pThr172 of AMPK. […] The reaction was terminated after 60 minutes incubation at room temperature, by the addition of 5 μL of stop and detection cocktail, which consisted of 1× Perkin Elmer Lance buffer (Perkin Elmer catalog number CR97-100), 40 mM EDTA (Thermo Fisher catalog number BP2482-100), and 2 nM Eu-anti-Acetyl CoA Carboxylase [pSer70] antibody (Perkin Elmer, TRF0208-M).

Another experiment has as its target T2, AMPK 221 (Homo sapiens, UniProt O43741+P54646).
T2 construct: open reading frames encoding the full-length α2, β2 and δ1 subunits of human AMPK; made in house; host or cells: E. coli BL21-CodonPlus (DE3)-RIPL, pET-14b
Nature of the experiment: Biochemical profiling of AMPK activators by AMPK221 (HTRF/TR-FRET assay, SAMS peptide, PP2A dephosphorylation protection). As to conditions: for EC50: phosphorylated AMPK 221 (α2β2δ1), 11 point dilution, duplicate, 4-parameter fit; for Emax: phosphorylated AMPK 221, maximal activation. The procedure:
as §1
The reaction was terminated after 60 minutes incubation at room temperature by the addition of 5 μL of stop and detection cocktail, which consisted of 1× Perkin Elmer Lance buffer (Perkin Elmer catalog number CR97-100), 40 mM EDTA (Thermo Fisher catalog number BP2482-100), and 2 nM Eu-anti-Acetyl CoA Carboxylase [pSer70] antibody (Perkin Elmer, TRF0208-M). Plates were spun at 1000 RPM, 10 seconds.
(In general: In TR-FRET formats the signal depends on donor and acceptor labels being close together.)

Molecules are shown by their SMILES.

T1 sequence (Q13131 whole entry): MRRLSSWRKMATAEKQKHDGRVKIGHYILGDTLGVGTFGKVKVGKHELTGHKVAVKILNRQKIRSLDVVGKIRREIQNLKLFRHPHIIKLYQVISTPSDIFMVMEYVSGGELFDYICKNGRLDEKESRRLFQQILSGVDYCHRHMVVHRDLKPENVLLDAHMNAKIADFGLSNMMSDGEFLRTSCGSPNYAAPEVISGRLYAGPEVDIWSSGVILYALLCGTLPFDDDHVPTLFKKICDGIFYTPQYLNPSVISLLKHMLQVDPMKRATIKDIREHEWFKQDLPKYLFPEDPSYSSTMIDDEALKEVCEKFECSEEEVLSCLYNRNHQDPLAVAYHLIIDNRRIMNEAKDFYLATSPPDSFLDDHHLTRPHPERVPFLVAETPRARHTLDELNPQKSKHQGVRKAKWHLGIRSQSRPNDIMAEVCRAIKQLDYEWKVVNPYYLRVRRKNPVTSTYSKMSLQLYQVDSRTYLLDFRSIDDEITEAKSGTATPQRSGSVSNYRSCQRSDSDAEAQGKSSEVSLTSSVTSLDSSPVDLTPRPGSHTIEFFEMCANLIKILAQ
T1 sequence (Q9Y478 whole entry): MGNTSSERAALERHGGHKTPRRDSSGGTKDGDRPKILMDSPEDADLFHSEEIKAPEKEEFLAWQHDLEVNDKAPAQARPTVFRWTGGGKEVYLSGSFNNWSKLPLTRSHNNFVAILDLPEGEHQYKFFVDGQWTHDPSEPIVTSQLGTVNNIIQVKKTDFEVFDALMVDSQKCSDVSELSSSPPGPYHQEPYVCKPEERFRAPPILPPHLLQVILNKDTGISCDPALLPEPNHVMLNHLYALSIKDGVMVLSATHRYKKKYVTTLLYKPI
T1 sequence (P54619 whole entry partner): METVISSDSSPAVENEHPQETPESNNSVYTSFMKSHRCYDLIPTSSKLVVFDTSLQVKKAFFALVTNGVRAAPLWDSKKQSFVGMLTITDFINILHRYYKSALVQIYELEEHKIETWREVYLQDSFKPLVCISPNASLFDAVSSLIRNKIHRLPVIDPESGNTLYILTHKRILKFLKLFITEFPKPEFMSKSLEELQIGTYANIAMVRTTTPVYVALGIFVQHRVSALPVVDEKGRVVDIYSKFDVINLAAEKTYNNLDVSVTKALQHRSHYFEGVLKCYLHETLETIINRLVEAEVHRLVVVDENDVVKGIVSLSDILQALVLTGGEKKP
T2 sequence (P54646 whole entry): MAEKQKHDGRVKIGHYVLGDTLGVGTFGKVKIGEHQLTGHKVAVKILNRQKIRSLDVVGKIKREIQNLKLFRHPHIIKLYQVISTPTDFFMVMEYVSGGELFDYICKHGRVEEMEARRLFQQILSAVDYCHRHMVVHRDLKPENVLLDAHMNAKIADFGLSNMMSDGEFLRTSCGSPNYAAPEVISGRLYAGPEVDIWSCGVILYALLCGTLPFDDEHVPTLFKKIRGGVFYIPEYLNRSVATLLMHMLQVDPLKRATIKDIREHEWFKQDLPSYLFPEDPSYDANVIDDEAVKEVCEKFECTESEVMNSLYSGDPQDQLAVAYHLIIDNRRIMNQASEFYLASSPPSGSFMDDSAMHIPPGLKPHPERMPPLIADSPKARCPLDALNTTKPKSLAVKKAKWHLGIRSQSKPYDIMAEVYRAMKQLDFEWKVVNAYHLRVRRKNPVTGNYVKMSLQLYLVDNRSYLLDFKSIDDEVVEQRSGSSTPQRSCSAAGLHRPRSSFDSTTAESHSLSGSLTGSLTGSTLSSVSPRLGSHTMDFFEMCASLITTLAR
T2 sequence (O43741 whole entry): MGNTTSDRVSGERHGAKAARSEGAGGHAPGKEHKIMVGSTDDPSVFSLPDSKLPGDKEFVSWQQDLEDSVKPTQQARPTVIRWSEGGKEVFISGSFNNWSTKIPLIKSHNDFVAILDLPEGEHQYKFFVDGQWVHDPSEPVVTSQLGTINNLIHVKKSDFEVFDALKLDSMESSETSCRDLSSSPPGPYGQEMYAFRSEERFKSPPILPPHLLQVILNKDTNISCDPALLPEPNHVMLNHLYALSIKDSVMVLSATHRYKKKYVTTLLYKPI
T2 sequence (P54619 whole entry partner): as the sequence (P54619 whole entry partner) above

Turning to `COc1cccc(-c2ccc(-c3cc4c(CCC(=O)O)n[nH]c4cc3Cl)cc2)c1O` [Example 2, 3-(6-Chloro-5-(2′-hydroxy-3′-methoxy-[1,1′-biphenyl]-4-yl)-1H-indazol-3-yl)propanoic acid], at AMPK 111, it took 0.029 µM to reach a half-maximal effect (EC50) and the Emax (as a rule, the maximal effect, on the per cent scale that the assay sets) was 80%. At AMPK 221, the EC50 (usually the concentration that produces a half-maximal response) was found to be 0.034 µM and the Emax was determined as 66%.

As to `O=C(O)CCc1n[nH]c2cc(Cl)c(-c3ccc(-c4ccccc4O)cc3F)cc12` [Example 3, 3-(6-Chloro-5-(3-fluoro-2′-hydroxy-[1,1′-biphenyl]-4-yl)-1H-indazol-3-yl)propanoic acid], on AMPK 111, the EC50 amounted to 0.189 µM and the Emax worked out at 83%. On AMPK 221, it took 0.528 µM to reach a half-maximal effect (EC50) and the maximum response (Emax) was 61%.

For the compound `O=C(O)CCc1c[nH]c2cc(Cl)c(-c3ccc(-c4ccccc4O)cc3)cc12` [Example 4, 3-(6-Chloro-5-(2′-hydroxy-[1,1′-biphenyl]-4-yl)-1H-indol-3-yl)propanoic acid], on AMPK 111, the response was half-maximal at 0.062 µM (EC50) and the Emax came out at 74%. For the same compound, at AMPK 221, the EC50 turned out to be 0.665 µM and the Emax came out at 34%.

On AMPK 111, `NC(=O)c1ccc(-c2ccc(-c3cc4c(CCC(=O)O)n[nH]c4cc3Cl)cc2)cc1` [Example 5, 3-(5-(4′-Carbamoyl-[1,1′-biphenyl]-4-yl)-6-chloro-1H-indazol-3-yl)propanoic acid] registered an EC50 of 0.089 µM and an Emax of 59%. Also, on AMPK 221, it took 0.037 µM to reach a half-maximal effect (EC50) and the Emax was determined as 62%.

In the case of `NC(=O)c1ccc(-c2ccc(-c3cc4c(CCC(=O)O)n[nH]c4cc3Cl)cc2)c(O)c1` [Example 6, 3-(5-(4′-Carbamoyl-2′-hydroxy-[1,1′-biphenyl]-4-yl)-6-chloro-1H-indazol-3-yl)propanoic acid], the EC50 turned out to be 0.006 µM at AMPK 111 and 0.004 µM on AMPK 221. Also, the Emax is 64% on AMPK 111 and 53% at AMPK 221.

Turning to `O=C(O)CCc1n[nH]c2cc(Cl)c(-c3ccc(-c4ccncc4O)cc3)cc12` [Example 7, 3-(6-Chloro-5-(4-(3-hydroxypyridin-4-yl)phenyl)-1H-indazol-3-yl)propanoic acid], the results for the concentration for a half-maximal effect (EC50) at AMPK 111 and on AMPK 221 were 0.09 µM and 0.359 µM, respectively. Moreover, the Emax on AMPK 111 was 71%; at AMPK 221, 57%.

Regarding `NCc1ccc(-c2ccc(-c3cc4c(CCC(=O)O)n[nH]c4cc3Cl)cc2)c(O)c1` [Example 8, 3-(5-(4′-(Aminomethyl)-2′-hydroxy-[1,1′-biphenyl]-4-yl)-6-chloro-1H-indazol-3-yl)propanoic acid], on AMPK 111, the concentration for a half-maximal effect (EC50) worked out at 0.026 µM and the Emax is 75%. On AMPK 221, this compound showed an EC50 of 0.038 µM and an Emax of 56%.

`NS(=O)(=O)c1ccc(-c2ccc(-c3cc4c(CCC(=O)O)n[nH]c4cc3Cl)cc2)c(O)c1` [Example 9, 3-(6-chloro-5-(2′-hydroxy-4′-sulfamoyl-[1,1′-biphenyl]-4-yl)-1H-indazol-3-yl)propanoic acid]: on AMPK 111, the midpoint of the response, the EC50, lay at 0.011 µM and the Emax amounted to 90%. At AMPK 221, this compound showed an EC50 of 0.041 µM and an Emax of 68%.

On AMPK 111, `COCc1ccc(-c2ccc(-c3cc4c(CCC(=O)O)n[nH]c4cc3Cl)cc2)c(O)c1` [Example 10, 3-(6-chloro-5-(2′-hydroxy-4′-(methoxymethyl)-[1,1′-biphenyl]-4-yl)-1H-indazol-3-yl)propanoic acid] had an EC50 of 0.029 µM and an Emax of 76%.

Take `O=C(O)CSc1n[nH]c2cc(Cl)c(-c3ccc(-c4ccccc4O)cc3)cc12` [Example 11, 2-((6-chloro-5-(2′-hydroxy-[1,1′-biphenyl]-4-yl)-1H-indazol-3-yl)thio)acetic acid]: on AMPK 111, the EC50 was 0.053 µM and the Emax stood at 62%. Besides, at AMPK 221, the midpoint of the response, the EC50, lay at 0.06 µM and the Emax was determined as 44%.

Take `CN(C)C(=O)c1ccc(-c2ccc(-c3cc4c(CCC(=O)O)n[nH]c4cc3Cl)cc2)c(O)c1` [Example 12, 3-(6-chloro-5-(4′-(dimethylcarbamoyl)-2′-hydroxy-[1,1′-biphenyl]-4-yl)-1H-indazol-3-yl)propanoic acid]: on AMPK 111, a half-maximal effect (EC50) was put at 0.016 µM and the Emax was 72%. At AMPK 221, this compound gave an EC50 of 0.062 µM and an Emax of 56%.

Turning to `NC(c1ccc(-c2ccc(-c3cc4c(CCC(=O)O)n[nH]c4cc3Cl)cc2)c(O)c1)C(F)(F)F` (centres unmarked) [Example 13, 3-(5-(4′-(1-amino-2,2,2-trifluoroethyl)-2′-hydroxy-[1,1′-biphenyl]-4-yl)-6-chloro-1H-indazol-3-yl)propanoic acid], at AMPK 111, a half-maximal effect (EC50) was put at 0.021 µM and the Emax amounted to 86%. In addition, on AMPK 221, the EC50 came out at 0.069 µM and the Emax amounted to 67%.

As to `COc1ccc(Cl)c(-c2ccc(-c3cc4c(CCC(=O)O)n[nH]c4cc3Cl)cc2)c1O` [Example 14, 3-(6-chloro-5-(6′-chloro-2′-hydroxy-3′-methoxy-[1,1′-biphenyl]-4-yl)-1H-indazol-3-yl)propanoic acid], on AMPK 111, it took 0.045 µM to reach a half-maximal effect (EC50) and the Emax worked out at 74%. On AMPK 221, the response was half-maximal at 0.072 µM (EC50) and the Emax came to 65%.

At AMPK 111, `Cc1cccc(O)c1-c1ccc(-c2cc3c(CCC(=O)O)n[nH]c3cc2Cl)cc1` [Example 15, 3-(6-chloro-5-(2′-hydroxy-6′-methyl-[1,1′-biphenyl]-4-yl)-1H-indazol-3-yl)propanoic acid] yielded an EC50 of 0.035 µM and an Emax of 75%. Besides, at AMPK 221, the midpoint of the response, the EC50, lay at 0.076 µM and the maximal effect (Emax) turned out to be 52%.

At AMPK 111, `COc1c(F)ccc(-c2ccc(-c3cc4c(CCC(=O)O)n[nH]c4cc3Cl)cc2)c1O` [Example 16, 3-(6-chloro-5-(4′-fluoro-2′-hydroxy-3′-methoxy-[1,1′-biphenyl]-4-yl)-1H-indazol-3-yl)propanoic acid] returned an EC50 of 0.037 µM and an Emax of 86%. At AMPK 221, the EC50 was determined as 0.081 µM and the Emax was found to be 64%.

At AMPK 111, `NC(=O)CSc1ccc(-c2ccc(-c3cc4c(CCC(=O)O)n[nH]c4cc3Cl)cc2)cc1` [Example 17, 3-(5-(4′-((2-amino-2-oxoethyl)thio)-[1,1′-biphenyl]-4-yl)-6-chloro-1H-indazol-3-yl)propanoic acid] returned an EC50 of 0.034 µM and an Emax of 80%. Moreover, at AMPK 221, the EC50 is 0.083 µM and the Emax was found to be 49%.

At AMPK 111, `Cc1cc(C)c(-c2ccc(-c3cc4c(CCC(=O)O)n[nH]c4cc3Cl)cc2)c(O)c1` [Example 18, 3-(6-chloro-5-(2′-hydroxy-4′,6′-dimethyl-[1,1′-biphenyl]-4-yl)-1H-indazol-3-yl)propanoic acid] yielded an EC50 of 0.012 µM and an Emax of 84%. On AMPK 221, it took 0.096 µM to reach a half-maximal effect (EC50) and the Emax was determined as 64%.

On to `O=C(O)CNc1n[nH]c2cc(Cl)c(-c3ccc(-c4ccccc4O)cc3)cc12` [Example 19, (6-Chloro-5-(2′-hydroxy-[1,1′-biphenyl]-4-yl)-1H-indazol-3-yl)glycine], for which the EC50 at AMPK 111 is 0.054 µM; on AMPK 221 it was 0.144 µM. Further, the results for the Emax on AMPK 111 and at AMPK 221 were 79% and 34%, respectively.

For `Cc1ccc(F)c(O)c1-c1ccc(-c2cc3c(CCC(=O)O)n[nH]c3cc2Cl)cc1` [Example 20, 3-(6-chloro-5-(3′-fluoro-2′-hydroxy-6′-methyl-[1,1′-biphenyl]-4-yl)-1H-indazol-3-yl)propanoic acid], at AMPK 111, a half-maximal effect (EC50) was put at 0.016 µM and the Emax turned out to be 82%. Besides, at AMPK 221, the midpoint of the response, the EC50, lay at 0.097 µM and the Emax worked out at 61%.

For the compound `COc1ccc(-c2ccc(-c3cc4c(CCC(=O)O)n[nH]c4cc3Cl)cc2)c(O)c1` [Example 21, 3-(6-chloro-5-(2′-hydroxy-4′-methoxy-[1,1′-biphenyl]-4-yl)-1H-indazol-3-yl)propanoic acid], on AMPK 111, the EC50 was 0.151 µM and the Emax amounted to 65%. On AMPK 221, this compound had an EC50 of 0.097 µM and an Emax of 56%.

`O=C(O)CCc1n[nH]c2cc(Cl)c(-c3ccc(-c4cccc(F)c4O)cc3)cc12` [Example 22, 3-(6-chloro-5-(3′-fluoro-2′-hydroxy-[1,1′-biphenyl]-4-yl)-1H-indazol-3-yl)propanoic acid]: on AMPK 111, the EC50 is 0.111 µM and the Emax amounted to 74%. In addition, at AMPK 221, the response was half-maximal at 0.1 µM (EC50) and the Emax was determined as 59%.

For the compound `CNC(=O)c1ccc(-c2ccc(-c3cc4c(CCC(=O)O)n[nH]c4cc3Cl)cc2)c(O)c1` [Example 23, 3-(6-chloro-5-(2′-hydroxy-4′-(methylcarbamoyl)-[1,1′-biphenyl]-4-yl)-1H-indazol-3-yl)propanoic acid], on AMPK 111, the EC50 was 0.002 µM and the Emax was 71%. At AMPK 221, this compound displayed an EC50 of 0.005 µM and a maximal effect (Emax) of 56%.
